In PubChem BioAssay (NCI):
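Protocol summary: plate cells (96-well), add compound at 5 concentrations, incubate 48 h, interpolate endpoints linearly. Definition used: TGI = concentration required for complete inhibition of growth.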

Experiments:
Assay in all cases: NCI anticancer screen, dose series, 48 h
[1] = tested on: NCI-H522 lung
[2] = tested on: ACHN renal
[3] = tested on: SK-MEL-2 melanoma
[4] = tested on: UO-31 renal
[5] = tested on: HOP-92 NSCLC
[6] = tested on: MALME-3M melanoma
[7] = tested on: U251 CNS
[8] = tested on: BT-549 breast
[9] = tested on: MOLT-4 leukemia
[10] = tested on: CAKI-1 renal
[11] = tested on: EKVX NSCLC
[12] = tested on: SNB-19 CNS
[13] = tested on: HL-60(TB) leukemia
[14] = tested on: NCI-H23 lung
[15] = tested on: SF-268 CNS
[16] = tested on: UACC-62 melanoma
[17] = tested on: NCI-H460 lung
[18] = tested on: T-47D breast
[19] = tested on: SK-MEL-28 melanoma
[20] = tested on: RPMI-8226 leukemia
[21] = tested on: HS 578T breast
[22] = tested on: 786-0 renal
[23] = tested on: KM12 colon
[24] = tested on: SF-295 CNS
[25] = tested on: MDA-MB-231 breast
[26] = tested on: UACC-257 melanoma
[27] = tested on: OVCAR-4 ovarian
[28] = tested on: A549 NSCLC
[29] = tested on: NCI/ADR-RES ovarian
[30] = tested on: OVCAR-5 ovarian
[31] = tested on: COLO 205 colon
[32] = tested on: K-562 leukemia
[33] = tested on: SN12C renal
[34] = tested on: DU-145 prostate
[35] = tested on: CCRF-CEM leukemia
[36] = tested on: MDA-MB-435
[37] = tested on: MDA-N
[38] = tested on: SK-MEL-5 melanoma
[39] = tested on: A498 renal
[40] = tested on: PC-3 prostate
[41] = tested on: HCT-116 colon
[42] = tested on: SR leukemia
[43] = tested on: MCF7 breast
[44] = tested on: SW-620 colon
[45] = tested on: LOX IMVI melanoma
[46] = tested on: SK-OV-3 ovarian
[47] = tested on: HCT-15 colon
[48] = tested on: NCI-H226 lung
[49] = tested on: TK-10 renal
[50] = tested on: RXF 393 renal
[51] = tested on: HCC-2998 colon
[52] = tested on: M14 melanoma
[53] = tested on: HOP-62 NSCLC
[54] = tested on: IGROV1 ovarian

Cc1ccc(-c2nc3cc(N4CCN(C)CC4)c(F)cc3[nH]2)cc1
TGI [1]: 31.9 µM
TGI [2]: 70.5 µM
TGI [3]: 32 µM
TGI [4]: 27.4 µM
TGI [5]: > 100 µM
TGI [6]: 31.2 µM
TGI [7]: > 100 µM
TGI [8]: 55.8 µM
TGI [9]: > 100 µM
TGI [10]: > 100 µM
TGI [11]: 70 µM
TGI [12]: 58.9 µM
TGI [13]: 46 µM
TGI [14]: > 100 µM
TGI [15]: 43.6 µM
TGI [16]: 31.3 µM
TGI [17]: 32.6 µM
TGI [18]: 50.7 µM
TGI [19]: 61.3 µM
TGI [20]: 75.5 µM
TGI [21]: 29.1 µM
TGI [22]: 39 µM
TGI [23]: 27 µM
TGI [24]: 30.4 µM
TGI [25]: > 100 µM
TGI [26]: 34.3 µM
TGI [27]: 59.3 µM
TGI [28]: 49 µM
TGI [29]: > 100 µM
TGI [30]: 60.2 µM
TGI [31]: 34.5 µM
TGI [32]: > 100 µM
TGI [33]: > 100 µM
TGI [34]: > 100 µM
TGI [35]: > 100 µM
TGI [36]: 48.1 µM
TGI [37]: 95.7 µM
TGI [38]: 25.1 µM
TGI [39]: 91.4 µM
TGI [40]: > 100 µM
TGI [41]: 50 µM
TGI [42]: > 100 µM
TGI [43]: 30.3 µM
TGI [44]: > 100 µM
TGI [45]: 94.3 µM
TGI [46]: 57.7 µM
TGI [47]: 21 µM
TGI [48]: 38.3 µM
TGI [49]: > 100 µM
TGI [50]: 38.4 µM
TGI [51]: 24.6 µM
TGI [52]: 31 µM
TGI [53]: 29.3 µM
TGI [54]: 90 µM
